Patent publication US3989837A, “Pharmaceutical compositions” (Chinoin Gyogyszer-es Vegyeszeti Termekek Gyara RT, priority 1972, dated 1976)
Like-named read-outs stand apart in the source and are kept apart here.

Key:
[1] = tested on: cotton granuloma; assay: Cotton granuloma, comparison with Indomethacine (Table 6); format: in vivo, rat; conditions: for Effect %, cotton granuloma: male rats, 7 days
Procedure: Two cotton beads, each weighing 23 to 27 mg., were implanted under the dorsal skin of the animals in aether narcosis, under semisterile conditions, along both sides of the vertebral column. The compound under examination was administered twice a day for 7 days in oral dosages of 0.2 ml./100 g. body weight, in a suspension formed with 1% methyl cellulose. On the 8th day the animals were killed by etheral overnarcosis, the granulomes were removed, dried at 50° C for 5 hours, and then weighed. The animals belonging to the control group were treated similarly, but they received suspending agent only. The percentage efficiacy was calculated from the weight differences of the granuloma tissues observed for the treated and control groups. The significance was examined by the t test.

[2] = tested on: kaoline oedema; assay: Rat paw oedema, kaoline (Table 4'); format: in vivo; conditions: for Effect % (average), inhibition of kaoline oedema / Effect %, inhibition of kaoline oedema: female rats; for Effect % (average), inhibition of kaoline oedema: average of repeated tests
Procedure: (§1) Inflammatory plantar oedema was provided by the subplantar injection of 0.1 ml. of 5% kaoline or 0.5% carrageenine on female rats each weighing 110 to 130 g., starved for 24 hours. The dorsoplantar diameter of the test animals was measured with a double-armed instrument prior to the administration of the phlogistic (basic value) and at regular intervals (at 2, 3.5 and 5 hours for kaoline and at 1.5, 3 and 4.5 hours for carrageenine) after the administration of the phlogistic. […] The treatment was always carried out 1 hour before the administration of the phlogistic. The animals belonging to the control group received suspending agent only. In order to ensure a uniform hydration grade, 1 ml. of tap water was administered through a stomach tube to the animals simultaneously with the administration of the active agent. During the test period the animals were allowed to consume water ad libitum.
(§2) The effect was calculated from the difference of the increase in paw diameter observed in the treated and control groups. The daga are given as percentage efficiacy.
(§3) The significance level was examined by Student's t test. The significance levels are marked by asterisks; the values of the repeated tests are given separately.

[3] = tested on: carrageenine oedema; assay: Rat paw oedema, carrageenine (Table 5'); format: in vivo; conditions: for Effect %, inhibition of carrageenine oedema: female rats
Procedure: as §1, §2, §3

[4] = tested on: writhing syndrome; assay: Writhing syndrome, comparison with Indomethacine (Table 7); format: in vivo, mouse; conditions: for Effect % average, writhing: male mice
Procedure: The tests were carried out on male mice each weighing 15 to 18 g., starved for 16 hours prior to treatment. 0.1 ml./10 g. body weight of 1% acetic acid solution was injected intraperitoneally to the animals. The sterile inflammation occurred on the action of acetic acid provoked a characteristic syndrome (writhing). The number of writhings was counted during an observation period of 20 minutes, starting 15 minutes after the administration of acetic acid. The substance to be tested was administered orally as a suspension, in a dosage of 0.1 ml./10 g. body weight 2 to 4 hours before the acetic acid injection. The average number of writhings observed for the treated animals was compared to that observed in the control group, and the percentage inhibition was calculated from the difference.

[5] = tested on: rats; assay: Ulcerogeneous action on rats, comparison with Indomethacine (Table 3'); conditions: for Animals having lesions on the intestines / Survivals / Ulcer number: male rats, 5 days
[6] = Toxicity on mice after oral administration, single dosage (Table 1'); format: in vivo; conditions: mouse, in vivo, po, male mice, p.o., 168 hours
Procedure: (§4) The tests were carried out on male mice weighing 25 to 30 g., not starved previously. The compounds were administered in a dosage of 0.2 ml. of suspension per 10 g. body weight. The individual dosages indicated in Table 1' were administered to 10 mice each. The given amount of active agent was added in a single dosage, and the animals were dept under observation for 7 days (= 168 hours). The number of deceased animals was recorded daily.
(§5) The LD50 values were calculated according to the Litchfied-Wilcoxon method, by also taking into account the number of animals perished within 168 hours from the administration.

[7] = tested on: mice; assay: as above; format: in vivo; conditions: for Perished animals/treated animals: male mice
Procedure: as §4, §5

Q: Which results are given for `COc1ccc2c(c1)c(CC(=O)OCC(Cl)(Cl)Cl)c(C)n2C(=O)c1ccc(Cl)cc1` [Example 5, 1-(p-chlorobenzoyl)-2-methyl-5-methoxy-indol-3-yl-acetic-acid trichloroethyl ester]?
A: effect on cotton granuloma compared with Indomethacine ([1]; even when added in a twofold dosage): lower than that of Indomethacine; Effect %, cotton granuloma ([1]; oral daily 5.5 (4) mg./kg., p 0.01): 19.5%; Effect %, cotton granuloma ([1]; oral daily 11 (8) mg./kg., p 0.001): 24.8%; Effect % (average), inhibition of kaoline oedema ([2]; p.o. 13.67 (10) mg./kg., 2 hours): 10.2%; Effect % (average), inhibition of kaoline oedema ([2]; p.o. 13.67 (10) mg./kg., 3.5 hours): 15.8%; Effect % (average), inhibition of kaoline oedema ([2]; p.o. 13.67 (10) mg./kg., 5 hours): 18.8%; Effect % (average), inhibition of kaoline oedema ([2]; p.o. 34.17 (25) mg./kg., 2 hours): 12.0%; Effect % (average), inhibition of kaoline oedema ([2]; p.o. 34.17 (25) mg./kg., 3.5 hours): 22.1%; Effect % (average), inhibition of kaoline oedema ([2]; p.o. 34.17 (25) mg./kg., 5 hours): 27.3%; Effect %, inhibition of kaoline oedema ([2]; p.o. 68.35 (50) mg./kg., 2 hours): 21.9%; Effect %, inhibition of kaoline oedema ([2]; p.o. 68.35 (50) mg./kg., 3.5 hours): 30.2%; Effect %, inhibition of kaoline oedema ([2]; p.o. 68.35 (50) mg./kg., 5 hours): 33.3%; Effect %, inhibition of kaoline oedema ([2]; p.o. 136.7 (100) mg./kg., 2 hours): 26.9%; Effect %, inhibition of kaoline oedema ([2]; p.o. 136.7 (100) mg./kg., 3.5 hours): 41.1%; Effect %, inhibition of kaoline oedema ([2]; p.o. 136.7 (100) mg./kg., 5 hours): 37.9%; dosage inhibiting oedema, times higher than Indomethacine ([2]; kaoline oedema, molar equivalents compared): about 2.5 times; antiphlogistic effect, times weaker than Indomethacine ([2]; summary of the comparison): about 2.5 times; dosage inhibiting oedema, times higher than Indomethacine ([3]; carrageenine oedema, molar equivalents compared): about 2.5 times; Effect %, inhibition of carrageenine oedema ([3]; p.o. 13.67 (10) mg./kg., 1.5 hours): 9.8%; Effect %, inhibition of carrageenine oedema ([3]; p.o. 13.67 (10) mg./kg., 3 hours): 15.8%; Effect %, inhibition of carrageenine oedema ([3]; p.o. 13.67 (10) mg./kg., 4.5 hours): 16.0%; Effect %, inhibition of carrageenine oedema ([3]; p.o. 34.17 (25) mg./kg., 1.5 hours): 10.8%; Effect %, inhibition of carrageenine oedema ([3]; p.o. 34.17 (25) mg./kg., 3 hours): 18.3%; Effect %, inhibition of carrageenine oedema ([3]; p.o. 34.17 (25) mg./kg., 4.5 hours): 21.9%; Effect %, inhibition of carrageenine oedema ([3]; p.o. 68.35 (50) mg./kg., 1.5 hours): 14.8%; Effect %, inhibition of carrageenine oedema ([3]; p.o. 68.35 (50) mg./kg., 3 hours): 19.9%; Effect %, inhibition of carrageenine oedema ([3]; p.o. 68.35 (50) mg./kg., 4.5 hours): 28.5%; Effect % average, writhing ([4]; p.o. 6.8 (5) mg./kg., 2 hours): 24.8%; Effect % average, writhing ([4]; p.o. 6.8 (5) mg./kg., 4 hours): 19.3%; Effect % average, writhing ([4]; p.o. 17.1 (12.5) mg./kg., 2 hours): 56.1%; Effect % average, writhing ([4]; p.o. 17.1 (12.5) mg./kg., 4 hours): 53.5%; dosage provoking the same analgesic effect, times higher than Indomethacine ([4]; writhing, ratio refers to molar equivalents): 2.5 times; Animals having lesions on the intestines ([5]; oral 27.3 (20) mg./kg.): 10.5%; Survivals ([5]; oral 27.3 (20) mg./kg.): 19; Ulcer number ([5]; oral 27.3 (20) mg./kg.): 0; Animals having lesions on the intestines ([5]; oral 54.7 (40) mg./kg.): 80%; Survivals ([5]; oral 54.7 (40) mg./kg.): 15; Ulcer number ([5]; oral 54.7 (40) mg./kg.): 0.27; frequency of occurrence of intestinal lesions compared with Indomethacine ([5]; rats, oral, fivefold dosage): doubled; lesions on intestines compared with Indomethacine ([5]; rats, oral, fivefold dosage): far more severe; extent of perishment, lower than that caused by Indomethacine 8 mg./kg. ([5]; rats, oral, fivefold dosage with respect to Indomethacine (8 mg./kg.)): 50%; lesions on the mucous membrane of the stomach ([5]; rats, oral, Indomethacine 4 and 8 mg./kg., […]): slightly more severe lesions; LD50 at 168 h ([6]; equivalent amounts of Indomethacine, read-out: LD50 as equivalent amount of Indomethacine): 1570 mg/kg; LD50 at 168 h ([6]; read-out: LD50): 2150 mg/kg; therapeutical width compared with Indomethacine ([7]; considering the toxicity values): far more favorable than that of Indomethacine; Perished animals/treated animals ([7]; oral 1367 (1000) mg./kg., 24 h): 0/10; Perished animals/treated animals ([7]; oral 1367 (1000) mg./kg., 48 h): 0/10; Perished animals/treated animals ([7]; oral 1367 (1000) mg./kg., 72 h): 0/10; Perished animals/treated animals ([7]; oral 1367 (1000) mg./kg., 96 h): 0/10; Perished animals/treated animals ([7]; oral 1367 (1000) mg./kg., 120 h): 0/10; Perished animals/treated animals ([7]; oral 1367 (1000) mg./kg., 144 h): 0/10; Perished animals/treated animals ([7]; oral 1367 (1000) mg./kg., 168 h): 0/10; Perished animals/treated animals ([7]; oral 2050 (1500) mg./kg., 24 h): 0/10; Perished animals/treated animals ([7]; oral 2050 (1500) mg./kg., 48 h): 0/10; Perished animals/treated animals ([7]; oral 2050 (1500) mg./kg., 72 h): 0/10; Perished animals/treated animals ([7]; oral 2050 (1500) mg./kg., 96 h): 0/10; Perished animals/treated animals ([7]; oral 2050 (1500) mg./kg., 120 h): 0/10; Perished animals/treated animals ([7]; oral 2050 (1500) mg./kg., 144 h): 0/10; Perished animals/treated animals ([7]; oral 2050 (1500) mg./kg., 168 h): 1/10; Perished animals/treated animals ([7]; oral 2734 (2000) mg./kg., 24 h): 0/10; Perished animals/treated animals ([7]; oral 2734 (2000) mg./kg., 48 h): 0/10; Perished animals/treated animals ([7]; oral 2734 (2000) mg./kg., 72 h): 2/10; Perished animals/treated animals ([7]; oral 2734 (2000) mg./kg., 96 h): 2/10; Perished animals/treated animals ([7]; oral 2734 (2000) mg./kg., 120 h): 4/10; Perished animals/treated animals ([7]; oral 2734 (2000) mg./kg., 144 h): 6/10; Perished animals/treated animals ([7]; oral 2734 (2000) mg./kg., 168 h): 6/10; Perished animals/treated animals ([7]; oral 3417 (2500) mg./kg., 24 h): 0/10; Perished animals/treated animals ([7]; oral 3417 (2500) mg./kg., 48 h): 1/10; Perished animals/treated animals ([7]; oral 3417 (2500) mg./kg., 72 h): 1/10; Perished animals/treated animals ([7]; oral 3417 (2500) mg./kg., 96 h): 3/10; Perished animals/treated animals ([7]; oral 3417 (2500) mg./kg., 120 h): 4/10; Perished animals/treated animals ([7]; oral 3417 (2500) mg./kg., 144 h): 6/10; Perished animals/treated animals ([7]; oral 3417 (2500) mg./kg., 168 h): 7/10; Perished animals/treated animals ([7]; oral 4101 (3000) mg./kg., 24 h): 0/10; Perished animals/treated animals ([7]; oral 4101 (3000) mg./kg., 48 h): 1/10; Perished animals/treated animals ([7]; oral 4101 (3000) mg./kg., 72 h): 3/10; Perished animals/treated animals ([7]; oral 4101 (3000) mg./kg., 96 h): 4/10; Perished animals/treated animals ([7]; oral 4101 (3000) mg./kg., 120 h): 5/10; Perished animals/treated animals ([7]; oral 4101 (3000) mg./kg., 144 h): 7/10; Perished animals/treated animals ([7]; oral 4101 (3000) mg./kg., 168 h): 7/10
